{"source": "PubChem BioAssay (NCI)", "experiment_in_all_cases": "NCI anticancer screen, dose series, 48 h", "key": {"[1]": {"test_system": "HOP-62 NSCLC"}, "[2]": {"test_system": "LOX IMVI melanoma"}, "[3]": {"test_system": "NCI-H23 lung"}, "[4]": {"test_system": "NCI-H460 lung"}, "[5]": {"test_system": "NCI-H522 lung"}, "[6]": {"test_system": "SF-539 CNS"}, "[7]": {"test_system": "SNB-75 CNS"}, "[8]": {"test_system": "U251 CNS"}, "[9]": {"test_system": "UACC-257 melanoma"}, "[10]": {"test_system": "DU-145 prostate"}}, "note": "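1) Cells in 96-well plates. 2) Compound, 48 h, 5 concentrations. 3) Linear interpolation between surrounding doses. 4) Unreached endpoint = highest concentration. TGI denotes the concentration required for complete inhibition of growth.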"}
{"smiles": "CCCNC(=O)C1C(=O)C(=O)N(CCC)C1=O", "note": "(configuration not stated)", "values": [{"measurement": "TGI", "setting": "[1]", "value": "> 100", "unit": "µM"}, {"measurement": "TGI", "setting": "[2]", "value": "> 100", "unit": "µM"}, {"measurement": "TGI", "setting": "[3]", "value": "> 100", "unit": "µM"}, {"measurement": "TGI", "setting": "[4]", "value": "> 100", "unit": "µM"}, {"measurement": "TGI", "setting": "[5]", "value": "> 100", "unit": "µM"}, {"measurement": "TGI", "setting": "[6]", "value": "> 100", "unit": "µM"}, {"measurement": "TGI", "setting": "[7]", "value": "> 100", "unit": "µM"}, {"measurement": "TGI", "setting": "[8]", "value": "> 100", "unit": "µM"}, {"measurement": "TGI", "setting": "[9]", "value": "> 100", "unit": "µM"}]}
{"smiles": "CCOC(=O)C1=C(Nc2ccc(Cl)cc2Cl)OCC1=O", "values": [{"measurement": "TGI", "setting": "[1]", "value": "> 100", "unit": "µM"}, {"measurement": "TGI", "setting": "[2]", "value": "> 100", "unit": "µM"}, {"measurement": "TGI", "setting": "[3]", "value": "> 100", "unit": "µM"}, {"measurement": "TGI", "setting": "[4]", "value": "> 100", "unit": "µM"}, {"measurement": "TGI", "setting": "[5]", "value": "> 100", "unit": "µM"}, {"measurement": "TGI", "setting": "[6]", "value": "> 100", "unit": "µM"}, {"measurement": "TGI", "setting": "[7]", "value": "> 100", "unit": "µM"}, {"measurement": "TGI", "setting": "[8]", "value": "> 100", "unit": "µM"}, {"measurement": "TGI", "setting": "[9]", "value": "> 100", "unit": "µM"}]}
{"smiles": "CCC(=O)c1c(NOC2OCC(OC(C)=O)C(OC(C)=O)C2OC(C)=O)nc(OC)n(C)c1=O", "note": "(configuration not stated)", "values": [{"measurement": "TGI", "setting": "[1]", "value": "> 100", "unit": "µM"}, {"measurement": "TGI", "setting": "[2]", "value": "> 100", "unit": "µM"}, {"measurement": "TGI", "setting": "[3]", "value": "> 100", "unit": "µM"}, {"measurement": "TGI", "setting": "[4]", "value": "> 100", "unit": "µM"}, {"measurement": "TGI", "setting": "[6]", "value": "> 100", "unit": "µM"}, {"measurement": "TGI", "setting": "[7]", "value": "> 100", "unit": "µM"}, {"measurement": "TGI", "setting": "[8]", "value": "> 100", "unit": "µM"}, {"measurement": "TGI", "setting": "[9]", "value": "> 100", "unit": "µM"}]}
{"smiles": "N/N=C1\\C(=O)N(C2CCCCCC2)C(=O)C1C(=O)NC1CCCCCC1", "note": "(configuration not stated)", "values": [{"measurement": "TGI", "setting": "[1]", "value": "> 10", "unit": "µM"}, {"measurement": "TGI", "setting": "[3]", "value": 52.1, "unit": "µM"}, {"measurement": "TGI", "setting": "[4]", "value": "> 100", "unit": "µM"}, {"measurement": "TGI", "setting": "[5]", "value": 60, "unit": "µM"}, {"measurement": "TGI", "setting": "[6]", "value": 56.1, "unit": "µM"}, {"measurement": "TGI", "setting": "[8]", "value": 31.7, "unit": "µM"}, {"measurement": "TGI", "setting": "[9]", "value": "> 100", "unit": "µM"}]}
{"smiles": "CCNC(=O)COc1ccc(Br)cc1Br", "values": [{"measurement": "TGI", "setting": "[1]", "value": "> 100", "unit": "µM"}, {"measurement": "TGI", "setting": "[2]", "value": "> 100", "unit": "µM"}, {"measurement": "TGI", "setting": "[3]", "value": "> 100", "unit": "µM"}, {"measurement": "TGI", "setting": "[4]", "value": "> 100", "unit": "µM"}, {"measurement": "TGI", "setting": "[5]", "value": "> 100", "unit": "µM"}, {"measurement": "TGI", "setting": "[6]", "value": "> 100", "unit": "µM"}, {"measurement": "TGI", "setting": "[7]", "value": "> 100", "unit": "µM"}, {"measurement": "TGI", "setting": "[8]", "value": "> 100", "unit": "µM"}, {"measurement": "TGI", "setting": "[9]", "value": "> 100", "unit": "µM"}]}
{"smiles": "O=C(CCC(=O)Nc1ccc(Cl)c(Cl)c1)CC(=O)c1ccc(Br)cc1", "values": [{"measurement": "TGI", "setting": "[2]", "value": "> 100", "unit": "µM"}, {"measurement": "TGI", "setting": "[3]", "value": "> 100", "unit": "µM"}, {"measurement": "TGI", "setting": "[5]", "value": "> 100", "unit": "µM"}, {"measurement": "TGI", "setting": "[6]", "value": "> 100", "unit": "µM"}, {"measurement": "TGI", "setting": "[7]", "value": "> 100", "unit": "µM"}, {"measurement": "TGI", "setting": "[8]", "value": "> 100", "unit": "µM"}, {"measurement": "TGI", "setting": "[9]", "value": "> 100", "unit": "µM"}]}
{"smiles": "CC(=O)N/N=C1\\CC(C)(C)C2CCC1C2", "note": "(configuration not stated)", "values": [{"measurement": "TGI", "setting": "[1]", "value": "> 100", "unit": "µM"}, {"measurement": "TGI", "setting": "[2]", "value": "> 100", "unit": "µM"}, {"measurement": "TGI", "setting": "[3]", "value": "> 100", "unit": "µM"}, {"measurement": "TGI", "setting": "[4]", "value": "> 100", "unit": "µM"}, {"measurement": "TGI", "setting": "[5]", "value": "> 100", "unit": "µM"}, {"measurement": "TGI", "setting": "[6]", "value": "> 100", "unit": "µM"}, {"measurement": "TGI", "setting": "[7]", "value": "> 100", "unit": "µM"}, {"measurement": "TGI", "setting": "[8]", "value": "> 100", "unit": "µM"}, {"measurement": "TGI", "setting": "[9]", "value": "> 100", "unit": "µM"}]}
{"smiles": "COC/C=C\\COC", "values": [{"measurement": "TGI", "setting": "[1]", "value": "> 100", "unit": "µM"}, {"measurement": "TGI", "setting": "[2]", "value": "> 100", "unit": "µM"}, {"measurement": "TGI", "setting": "[4]", "value": "> 100", "unit": "µM"}, {"measurement": "TGI", "setting": "[7]", "value": "> 100", "unit": "µM"}, {"measurement": "TGI", "setting": "[8]", "value": "> 100", "unit": "µM"}, {"measurement": "TGI", "setting": "[9]", "value": "> 100", "unit": "µM"}]}
{"smiles": "CC1=CC(=O)CC2(C)CC[C@@H]3C[C@]12OC3(C)C", "note": "(some centres not stated)", "values": [{"measurement": "TGI", "setting": "[1]", "value": "> 100", "unit": "µM"}, {"measurement": "TGI", "setting": "[2]", "value": "> 100", "unit": "µM"}, {"measurement": "TGI", "setting": "[3]", "value": "> 100", "unit": "µM"}, {"measurement": "TGI", "setting": "[4]", "value": "> 100", "unit": "µM"}, {"measurement": "TGI", "setting": "[5]", "value": "> 100", "unit": "µM"}, {"measurement": "TGI", "setting": "[6]", "value": "> 100", "unit": "µM"}, {"measurement": "TGI", "setting": "[7]", "value": "> 100", "unit": "µM"}, {"measurement": "TGI", "setting": "[8]", "value": "> 100", "unit": "µM"}, {"measurement": "TGI", "setting": "[9]", "value": "> 100", "unit": "µM"}]}
{"smiles": "Cc1[nH]nc(C(F)(F)F)c1N=NN(C)C", "values": [{"measurement": "TGI", "setting": "[10]", "value": 24.2, "unit": "µM"}, {"measurement": "TGI", "setting": "[1]", "value": 27, "unit": "µM"}, {"measurement": "TGI", "setting": "[2]", "value": "> 100", "unit": "µM"}, {"measurement": "TGI", "setting": "[3]", "value": 21.9, "unit": "µM"}, {"measurement": "TGI", "setting": "[4]", "value": 26.6, "unit": "µM"}, {"measurement": "TGI", "setting": "[5]", "value": 2.98, "unit": "µM"}, {"measurement": "TGI", "setting": "[6]", "value": 20.7, "unit": "µM"}, {"measurement": "TGI", "setting": "[8]", "value": 36.5, "unit": "µM"}, {"measurement": "TGI", "setting": "[9]", "value": 28.2, "unit": "µM"}]}
